For 47 compounds, Ki results are on record in patent US20100056507A1, “PHENYL DERIVATIVES AND THEIR USE AS A MEDICAMENT” (IPSEN PHARMA S.A.S., priority 2006, published 2010).

In the experiment the target is T1, human CB2 receptors (Homo sapiens, UniProt P34972).
T1 construct: expressed in transfected cells; membranes used
The experiment is described as follows: Affinity for the human CB2 cannabinoid receptors: inhibition of [3H]-CP55940 binding to transfected CHO-K1 cell membranes. Conditions: [3H]-CP55940 1 nM, CHO-K1 membranes expressing human CB2, Cheng-Prusoff correction. The protocol:
The affinity of the compounds of the invention for the human CB2 receptors is determined by measuring the inhibition of the binding of [^3H]-CP55940 to transfected CHO-K1 cell membrane preparations.
The cells are collected with 0.5 mM of EDTA and centrifuged at 500 g for 5 minutes at 4° C. The pellet is re-suspended in phosphate buffered saline medium (PBS) and centrifuged at 500 g for 5 minutes at 4° C. The pellet is re-suspended in a Tris 50 mM buffer medium at pH 7.4 and centrifuged at 500 g for 5 minutes at 4° C. The cells are lysed by sonication and centrifuged at 39,000 g for 10 minutes at 4° C. The pellet is re-suspended in the Tris 50 mM buffer medium at pH 7.4 and centrifuged at 50,000 g for 10 minutes at 4° C. The membranes obtained in this last pellet are stored at −80° C.
Measurement of the competitive inhibition of the binding of the [^3H]-CP55940 to the CB2 receptors is carried out in duplicate using 96-well polypropylene plates. The cell membranes (10 μg of proteins/well) are incubated with the [^3H]-CP55940 (1 nM) for 60 minutes at 25° C. in a Tris-HCl 50 mM buffer medium, pH 7.4, comprising 0.1% bovine serum albumin (BSA), 5 mM of MgCl2, and 50 μg/ml of bacitracin.
The filters are washed with Tris-HCl 50 mM buffer, pH 7.4 at 0-4° C. and the radioactivity present is determined using a counter (Packard Top Count).
The specific binding is obtained by subtracting the non-specific binding (determined in the presence of 0.1 μM of WIN55212-2 from the total binding). The data are analyzed by computer-assisted non-linear regression (MDL). For each test, a Cheng-Prusoff correction is made in order to convert the IC50 to the inhibition constant, Ki.
where [L] is the concentration of the radioligand used in the test and Kd is the radioligand equilibrium disassociation constant.

Like-named read-outs stand apart in the source and are kept apart here.

T1 sequence (P34972 whole entry): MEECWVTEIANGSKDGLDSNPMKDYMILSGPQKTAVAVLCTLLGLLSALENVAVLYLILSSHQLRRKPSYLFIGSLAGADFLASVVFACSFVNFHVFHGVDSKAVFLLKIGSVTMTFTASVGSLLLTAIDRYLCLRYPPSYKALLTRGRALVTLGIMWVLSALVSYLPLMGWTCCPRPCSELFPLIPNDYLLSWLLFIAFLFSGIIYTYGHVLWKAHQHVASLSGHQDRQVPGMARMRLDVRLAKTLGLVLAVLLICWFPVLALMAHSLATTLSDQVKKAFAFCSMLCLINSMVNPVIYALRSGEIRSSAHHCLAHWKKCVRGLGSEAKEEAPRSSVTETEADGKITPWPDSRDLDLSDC

As to `CC1(C)CCNc2ccc(C(=O)OCCc3ccc(NC(=O)C4CCC4)cc3)cc21` [Example 50], the Ki is below 500 nM (read-out: Ki < 0.5 μM) and below 5000 nM (read-out: Ki < 5 μM).
Take `CC1(C)CCC(C)(C)c2cc(-c3nnc(CCc4ccc(NC(=O)C5CCC5)cc4)s3)ccc21` [Example 51]: the inhibitory constant (Ki) is below 500 nM (read-out: Ki < 0.5 μM) and below 5000 nM (read-out: Ki < 5 μM).
The corresponding values for `C=CCNC(=O)Nc1ccc(CCc2nnc(-c3ccc4c(c3)C(C)(C)CCC4(C)C)s2)cc1` [Example 52] are below 500 nM and below 5000 nM.
On the same counts, the results for `CCCNC(=O)Nc1ccc(CCc2nnc(-c3ccc4c(c3)C(C)(C)CCC4(C)C)s2)cc1` [Example 53] are below 500 nM and below 5000 nM.
For the compound `CC(=O)Nc1ccc(CCOC(=O)c2ccc3c(c2)C(C)(C)CCC3(C)C)cc1` [Example 54], the Ki was below 500 nM (read-out: Ki < 0.5 μM) and below 5000 nM (read-out: Ki < 5 μM).
Take `CCC(=O)Nc1ccc(CCOC(=O)c2ccc3c(c2)C(C)(C)CCC3(C)C)cc1` [Example 55]: the Ki (read-out: Ki < 0.5 μM) was below 500 nM and the Ki (read-out: Ki < 5 μM) was below 5000 nM.
The corresponding values for `CC(C)C(=O)Nc1ccc(CCOC(=O)c2ccc3c(c2)C(C)(C)CCC3(C)C)cc1` [Example 56] are below 500 nM and below 5000 nM.
As to `CC(C)(C)C(=O)Nc1ccc(CCOC(=O)c2ccc3c(c2)C(C)(C)CCC3(C)C)cc1` [Example 57], the Ki by setting is: (read-out: Ki < 0.5 μM) below 500 nM; (read-out: Ki < 5 μM) below 5000 nM.
The corresponding values for `CC(C)CC(=O)Nc1ccc(CCOC(=O)c2ccc3c(c2)C(C)(C)CCC3(C)C)cc1` [Example 58] are below 500 nM and below 5000 nM.
The corresponding values for `CC(C)(C)CC(=O)Nc1ccc(CCOC(=O)c2ccc3c(c2)C(C)(C)CCC3(C)C)cc1` [Example 59] are below 500 nM and below 5000 nM.
The corresponding values for `CCCCC(=O)Nc1ccc(CCOC(=O)c2ccc3c(c2)C(C)(C)CCC3(C)C)cc1` [Example 60] are below 500 nM and below 5000 nM.
`C=CC(=O)Nc1ccc(CCOC(=O)c2ccc3c(c2)C(C)(C)CCC3(C)C)cc1` [Example 61]: the Ki is below 500 nM (read-out: Ki < 0.5 μM) and below 5000 nM (read-out: Ki < 5 μM).
On the same counts, the results for `C=CCCC(=O)Nc1ccc(CCOC(=O)c2ccc3c(c2)C(C)(C)CCC3(C)C)cc1` [Example 62] are below 500 nM and below 5000 nM.
On the same counts, the results for `CC1(C)CCC(C)(C)c2cc(C(=O)OCCc3ccc(NC(=O)C4CC4)cc3)ccc21` [Example 63] are below 500 nM and below 5000 nM.
On the same counts, the results for `CC1(C)CCC(C)(C)c2cc(C(=O)OCCc3ccc(NC(=O)C4CCCC4)cc3)ccc21` [Example 64] are below 500 nM and below 5000 nM.
As for `CC1(C)CCC(C)(C)c2cc(C(=O)OCCc3ccc(NC(=O)C4CCCCC4)cc3)ccc21` [Example 65], the Ki (read-out: Ki < 0.5 μM) is below 500 nM and the Ki (read-out: Ki < 5 μM) was below 5000 nM.
In the case of `CC1(C)CCC(C)(C)c2cc(C(=O)OCCc3ccc(NC(=O)CC4CCCC4)cc3)ccc21` [Example 66], the Ki reads like this: (read-out: Ki < 0.5 μM) below 500 nM; (read-out: Ki < 5 μM) below 5000 nM.
On the same counts, the results for `CC1(C)CCC(C)(C)c2cc(C(=O)OCCc3ccc(NC(=O)Cc4ccccc4)cc3)ccc21` [Example 67] are below 500 nM and below 5000 nM.
In the case of `CC1(C)CCC(C)(C)c2cc(C(=O)OCCc3ccc(NC(=O)Cc4cccs4)cc3)ccc21` [Example 68], the Ki (read-out: Ki < 0.5 μM) was below 500 nM and the Ki (read-out: Ki < 5 μM) was below 5000 nM.
Regarding `CC1(C)CCC(C)(C)c2cc(C(=O)OCCc3ccc(NS(C)(=O)=O)cc3)ccc21` [Example 69, 2-{4-[(methylsulphonyl)amino]phenyl}ethyl 5,5,8,8-tetramethyl-5,6,7,8-tetrahydronaphthalene-2-carboxylate], the Ki reads like this: (read-out: Ki < 0.5 μM) below 500 nM; (read-out: Ki < 5 μM) below 5000 nM.
Regarding `CCS(=O)(=O)Nc1ccc(CCOC(=O)c2ccc3c(c2)C(C)(C)CCC3(C)C)cc1` [Example 70], the Ki is below 500 nM (read-out: Ki < 0.5 μM) and below 5000 nM (read-out: Ki < 5 μM).
On the same counts, the results for `CCCS(=O)(=O)Nc1ccc(CCOC(=O)c2ccc3c(c2)C(C)(C)CCC3(C)C)cc1` [Example 71] are below 500 nM and below 5000 nM.
The corresponding values for `CC1(C)CCC(C)(C)c2cc(C(=O)OCCc3ccc(NS(=O)(=O)C4CC4)cc3)ccc21` [Example 72] are below 500 nM and below 5000 nM.
On the same counts, the results for `CC(C)NC(=O)Nc1ccc(CCOC(=O)c2ccc3c(c2)C(C)(C)CCC3(C)C)cc1` [Example 73] are below 500 nM and below 5000 nM.
Consider `CC(C)(C)NC(=O)Nc1ccc(CCOC(=O)c2ccc3c(c2)C(C)(C)CCC3(C)C)cc1` [Example 74], for which the inhibition constant (Ki) was below 500 nM (read-out: Ki < 0.5 μM) and below 5000 nM (read-out: Ki < 5 μM).
On the same counts, the results for `CC1(C)CCC(C)(C)c2cc(C(=O)OCCc3ccc(NC(=O)NCc4ccco4)cc3)ccc21` [Example 75] are below 500 nM and below 5000 nM.
Turning to `CCNC(=S)Nc1ccc(CCOC(=O)c2ccc3c(c2)C(C)(C)CCC3(C)C)cc1` [Example 76, 2-(4-{[(ethylamino)carbonothioyl]amino}phenyl)ethyl 5,5,8,8-tetramethyl-5,6,7,8-tetrahydronaphthalene-2-carboxylate], the Ki is below 500 nM (read-out: Ki < 0.5 μM) and below 5000 nM (read-out: Ki < 5 μM).
On to `CCCNC(=S)Nc1ccc(CCOC(=O)c2ccc3c(c2)C(C)(C)CCC3(C)C)cc1` [Example 77], for which the Ki was below 500 nM (read-out: Ki < 0.5 μM) and below 5000 nM (read-out: Ki < 5 μM).
As to `C=CCNC(=S)Nc1ccc(CCOC(=O)c2ccc3c(c2)C(C)(C)CCC3(C)C)cc1` [Example 78], the Ki reads like this: (read-out: Ki < 0.5 μM) below 500 nM; (read-out: Ki < 5 μM) below 5000 nM.
On to `COCCNC(=S)Nc1ccc(CCOC(=O)c2ccc3c(c2)C(C)(C)CCC3(C)C)cc1` [Example 79], for which the Ki (read-out: Ki < 0.5 μM) is below 500 nM and the Ki (read-out: Ki < 5 μM) was below 5000 nM.
On the same counts, the results for `CC1(C)CCC(C)(C)c2cc(C(=O)OCCc3ccc(NC(=S)NCc4ccco4)cc3)ccc21` [Example 80] are below 500 nM and below 5000 nM.
On the same counts, the results for `CCNC(=O)Nc1ccc(CCOC(=O)c2ccc3c(c2)C(C)(C)CCC3(C)C)cc1` [Example 81] are below 500 nM and below 5000 nM.
The corresponding values for `CCC(C)NC(=O)Nc1ccc(CCOC(=O)c2ccc3c(c2)C(C)(C)CCC3(C)C)cc1` (stereo not shown) [Example 82] are below 500 nM and below 5000 nM.
As to `CCCCNC(=O)Nc1ccc(CCOC(=O)c2ccc3c(c2)C(C)(C)CCC3(C)C)cc1` [Example 83], the Ki is below 500 nM (read-out: Ki < 0.5 μM) and below 5000 nM (read-out: Ki < 5 μM).
As for `CC1(C)CCC(C)(C)c2cc(C(=O)OCCc3ccc(NC(=O)NCc4ccccc4)cc3)ccc21` [Example 84], the Ki is below 500 nM (read-out: Ki < 0.5 μM) and below 5000 nM (read-out: Ki < 5 μM).
The corresponding values for `COCC(=O)Nc1ccc(CCOC(=O)c2ccc3c(c2)C(C)(C)CCC3(C)C)cc1` [Example 85] are below 500 nM and below 5000 nM.
Regarding `COCCC(=O)Nc1ccc(CCOC(=O)c2ccc3c(c2)C(C)(C)CCC3(C)C)cc1` [Example 86], the Ki (read-out: Ki < 0.5 μM) was below 500 nM and the Ki (read-out: Ki < 5 μM) was below 5000 nM.
In the case of `CC1(C(=O)Nc2ccc(CCOC(=O)c3ccc4c(c3)C(C)(C)CCC4(C)C)cc2)CC1` [Example 87], the Ki runs as follows: (read-out: Ki < 0.5 μM) below 500 nM; (read-out: Ki < 5 μM) below 5000 nM.
On the same counts, the results for `CC1CC1C(=O)Nc1ccc(CCOC(=O)c2ccc3c(c2)C(C)(C)CCC3(C)C)cc1` (stereo not shown) [Example 88] are below 500 nM and below 5000 nM.
The corresponding values for `CC1(C)CCC(C)(C)c2cc(C(=O)OCCc3ccc(NC(=O)C4CC4(C)C)cc3)ccc21` (stereo not shown) [Example 89] are below 500 nM and below 5000 nM.
The corresponding values for `CC1(C)CCC(C)(C)c2cc(C(=O)OCCc3ccc(NC(=O)C4CC45CCC5)cc3)ccc21` (stereo not shown) [Example 90] are below 500 nM and below 5000 nM.
For the compound `CC1(C)CCC(C)(C)c2cc(C(=O)OCCc3ccc(NC(=O)CC4CC4)cc3)ccc21` [Example 91], the Ki is below 500 nM (read-out: Ki < 0.5 μM) and below 5000 nM (read-out: Ki < 5 μM).
On the same counts, the results for `CC1(C)CCC(C)(C)c2cc(C(=O)OCCc3ccc(NC(=O)C4CCOC4)cc3)ccc21` (stereo not shown) [Example 92] are below 500 nM and below 5000 nM.
The corresponding values for `CC1(C)CCC(C)(C)c2cc(C(=O)OCCc3ccc(NC(=O)Cc4ccco4)cc3)ccc21` [Example 93] are below 500 nM and below 5000 nM.
On the same counts, the results for `CCCC(=O)Nc1ccc(CCOC(=O)c2ccc3c(c2)C(C)(C)CCC3(C)C)cc1` [Example 94] are below 500 nM and below 5000 nM.
On to `CCC(C)C(=O)Nc1ccc(CCOC(=O)c2ccc3c(c2)C(C)(C)CCC3(C)C)cc1` (stereo not shown) [Example 95], for which the Ki (read-out: Ki < 0.5 μM) is below 500 nM and the Ki (read-out: Ki < 5 μM) is below 5000 nM.
Take `CC1(C)CCC(C)(C)c2cc(C(=O)OCCc3ccc(NC(=O)NC4CC4)cc3)ccc21` [Example 96]: the Ki (read-out: Ki < 0.5 μM) was below 500 nM and the Ki (read-out: Ki < 5 μM) was below 5000 nM.

The term Ki denotes a dissociation constant, usually derived from enzyme kinetics or from competition with a known ligand.
